The record followed here is US11773081B2, “Pharmaceutical composition for preventing or treating wound, comprising indirubin derivative as active ingredient” (CK Regeon Inc., priority 2018, dated 2023).

Assay [1] relates to mouse acute wound. The experiment in a line: Wound healing effect of extract and indirubin derivative mixtures in mouse acute wound (Test Example 6). It is filed as in vivo. The following applies: mouse acute wound tissue, fluorescence staining. The procedure:
Wound healing-promoting effect was investigated after treating an animal model with the indirubin derivative of Example 1 (0.5 mM), the indirubin derivative of Example 2 (0.5 mM) or the mixtures of Examples 12 and 13 (0.5 mM indirubin derivative mixed with 1 μg/mL Euodia sutchuenensis Dode extract).
The hair on the back of 7-week-old C3H mouse that entered the resting period was removed and a 1.5×1.5 cm^2 wound was made on the hair-removed region. A sample was applied to a positive control group, once daily for 12 days. After measuring wound size of the experimental animal on days 0 and 12, the wound tissue was fixed by immersing in 4% paraformaldehyde, embedded in paraffin and then sliced into 4 μm thickness. The sliced tissue was deparaffinized, rehydrated and then the degree of re-epithelialization was compared. Masson's trichrome staining and Picrosirius red staining were conducted for evaluation of the degree of collagen synthesis. For Masson's trichrome staining, a slide was immersed in Weigert's iron hematoxylin solution for 10 minutes and in Biebrich scarlet-acid fuchsin and aniline blue for 5 minutes each. […] The sliced skin tissue was fluorescence-stained using β-catenin, PCNA, keratin 14 and collagen I antibodies and was observed using a fluorescence microscope (FIG. 9a). […]

The subject of assay [2] is HaCaT cells. Description: Cell migration of keratinocytes, Euodia sutchuenensis Dode extract and indirubin derivative mixtures (Test Example 5). Type of assay: cell-based, human. The following applies: 18 hours. As for the experimental part: Cell migration was compared after treating cells with the indirubin derivative of Example 1 (0.1 μM, 1 μM), the indirubin derivative of Example 2 (0.1 μM, 1 μM) or the mixtures of Examples 12 and 13 (0.1 μM and 1 μM indirubin derivative mixed with 1 μg/mL Euodia sutchuenensis Dode extract, respectively).
A non-treated control group (con), a group treated with the Euodia sutchuenensis Dode extract of Example 8 (1 μg/mL) alone (Euodia sutchuenensis Dode 1 μg/mL) and a positive control group treated with 100 μM VPA (valproic acid) were prepared.
Experiment was conducted as follows. First, HaCaT cells were cultured in a 12-well plate for 24 hours. The HaCaT cells are human keratinocytes which are known to play an important role in wound healing. DMEM containing 10% FBS was used. After the culturing for 24 hours was completed, the medium was replaced with DMEM containing 5% FBS and a scratch was made at the center of the cells using a 1000p (blue) tip. Then, after treating the scratched area with a sample, cell migration and motility was observed 18 hours later.
As the sample, the indirubin derivative of Example 1 (0.1 μM, 1 μM), the indirubin derivative of Example 2 (0.1 μM, 1 μM) or the mixtures of Examples 12 and 13 (0.1 μM and 1 μM indirubin derivative mixed with 1 μg/mL Euodia sutchuenensis Dode extract, respectively) was used. […]

Assay [3] has as its system mouse acute wound. Description: Wound healing effect of mixtures in mouse acute wound (Test Example 4). It is filed as in vivo. The following applies: C3H mouse; Example 2 0.5 mM, Example 5 2.5 mM, 5 mM; 20 μL once daily for 12 days.
The test system of another assay is diabetic wound. The experiment in a line: Effect of treating diabetic wound (Test Example 9). Type of assay: in vivo. The following applies: diabetes-induced mouse; for healing of the wound site: 0.8×0.8 cm^2 wound, 20 μL once daily for 14 days, VPA 500 mM; for re-epithelialization (H&E): 14 days. As for the experimental part:
3-week-old male C57BL/6N mice (Koatech, South Korea) were used. After accustoming the mice for a week to normal feed, high-fat diet (Product Data—D12492; 60% kcal, hereinafter referred to as HFD) was given for 4 weeks. Then, a diabetes-induced animal model was prepared by intraperitoneally injecting 40 mg/kg streptozocin (Sigma) once daily for a week. The mice were kept in cages maintained at constant temperature (22±2° C.) and relative humidity (40-60%) with light/dark cycles of 12/12 hours.
6 mice of the normal control group and 6 mice per test group of the diabetes-induced animal model of Test Example 7 were prepared. The hair on the back was removed and a 0.8×0.8 cm^2 wound was made on the hair-removed region.
For the normal control group, only 20 μL of an emulsion solution (Kollipore®EL:Tween 80:PEG 400 at a mixing weight ratio of 80:6:14) was applied to the wound site once daily for 14 days. For the negative control group, only 20 μL of the emulsion solution (Kollipore®EL:Tween 80:PEG 400 at a mixing weight ratio of 80:6:14) was applied to the wound site once daily for 14 days. For the positive control group (VPA), 20 μL of a composition prepared by mixing 500 mM VPA in an emulsion solution was applied to the wound site once daily for 14 days.
For the first test group, 20 μL of A3334 (Example 1) was applied to the wound site once daily for 14 days. For the second test group, 20 μL of A3051 (Example 2) was applied to the wound site once daily for 14 days. Then, the wound site of each group was photographed and the wound area was measured (FIG. 14). On day 14, after euthanizing the mouse with carbon dioxide, the wound site tissue was harvested and the histological structure was observed.
Specifically, the wound site tissue obtained from the normal control group, the negative control group, the positive control group or the first or second test group was fixed by immersing in 4% paraformaldehyde, embedded in paraffin and then sliced into 4 μm thickness. The sliced tissue was deparaffinized, rehydrated and then stained with hematoxylin (purple) and eosin (pink) for observation of histological structure.
Specifically, the wound site tissue obtained from the normal control group, the negative control group, the positive control group or the first or second test group was fixed by immersing in 4% paraformaldehyde, embedded in paraffin and then sliced into 4 μm thickness. The sliced tissue was deparaffinized, rehydrated and then stained with Van Gieson's stain and Masson's trichrome for observation of histological structure. For the Van Gieson's staining, the sliced tissue was immersed in Weigert's solution for 10 minutes and in picrofuchsin solution for 2 minutes. For the Masson's trichrome staining, the sliced tissue was immersed in Weigert's iron hematoxylin solution for 10 minutes and in Biebrich scarlet-acid fuchsin and Aniline blue for 5 minutes each.
Specifically, the wound site tissue obtained from the normal control group, the negative control group, the positive control group or the first and second test groups was fixed by immersing in 4% paraformaldehyde and angiogenesis was observed.

The test system of assay [4] is mouse acute wound. Description: Wound healing and collagen synthesis in mouse acute wound (Test Example 2). Type of assay: in vivo. The procedure:
The wound healing-promoting effect of the indirubin derivatives prepared in Examples 1 and 2, the indirubin derivative of Comparative Example 1 (10) and EGF, known as an existing wound healing agent, as a positive control group was investigated through animal experiments.
The hair on the back of 7-week-old C3H mouse that entered the resting period was removed and a 1.5×1.5 cm^2 wound was made on the hair-removed region. 20 μL of a vehicle (10% DMSO, 45% ethanol, 18% propylene glycol, 27% water) and the indirubin derivative of Comparative Example 1 (10) were applied to a control group and a comparison group, respectively, once daily for 12 days. For the positive control group, 100 μM EGF was applied once daily for 12 days. For a first test group, 20 μL of the indirubin derivative of Example 2 (A3051) was applied once daily for 12 days. For a second test group, 20 μL of the indirubin derivative of Example 1 (A3334) was applied once daily for 12 days.
The tissue of each experimental mouse was fixed by immersing in 4% paraformaldehyde, embedded in paraffin and then sliced into 4 μm thickness. The sliced tissue was deparaffinized, rehydrated and then stained with Masson's trichrome and Picrosirius red for evaluation of the degree of collagen synthesis. For Masson's trichrome staining, a slide was placed in Weigert's iron hematoxylin solution for 10 minutes and in Biebrich scarlet-acid fuchsin and aniline blue for 5 minutes each. For Picrosirius red staining, a slide was placed in Weigert's solution for 8 minutes and in Picrosirius red for 1 hour.

For assay [5], the system named is HaCaT cells. Description: Cell motility of keratinocytes, indirubin derivative and low-molecular-weight compound mixtures (Test Example 3). The following applies: HaCaT scratch; 18 hours later; methyl vanillate 5 μM, hesperidin 1 μM, quercitrin 1 μM. It is filed as cell-based, human. As for the experimental part:
For analysis of wound healing effect, cell motility was compared for treatment with the indirubin derivative prepared in Example 2, the methyl vanillate of Example 5, the hesperidin of Example 6, the quercitrin of Example 7 and the mixtures prepared in Examples 9-11.
HaCaT cells, which are human keratinocytes playing an important role in wound healing, were cultured in a 12-well plate for 24 hours using DMEM containing 10% FBS. Then, after replacing the medium with DMEM containing 5% FBS, a scratch was made at the center of the cells using a 1000p (blue) tip. Then, after treating the scratched area with each of the indirubin derivative prepared in Example 2, the methyl vanillate of Example 5, the hesperidin of Example 6, the quercitrin of Example 7 and the mixtures prepared in Examples 9-11 at a concentration of 1 μM or 5 μM, cell motility was observed 18 hours later.
Specifically, the concentration of the indirubin derivative prepared in Example 2, the hesperidin of Example 6 and the quercitrin of Example 7 was 1 μM, the concentration of the methyl vanillate of Example 5 was 5 μM, and the mixtures prepared in Examples 9-11 were prepared by mixing 1 μM indirubin derivative with 5 μM methyl vanillate, 1 μM hesperidin or 1 μM quercitrin.
The control group (control) means non-treated keratinocytes. […]

The mark [6] stands for this setting: C3H mouse acute wound, once daily for 12 days, vs EGF.

For `CO/N=C1/C(=C2/C(=O)Nc3cc(Cl)c(Cl)cc32)Nc2ccccc21` [Example 2, 5,6-dichloroindirubin-3′-methoxime], in the assay with mouse acute wound [1], the “expression of β-catenin, PCNA, keratin 14 and collagen I” value is reported as “slightly lower as compared to the positive control group”. Further, the “recovery of cell migration rate (%) as compared to the control group” value in the assay with HaCaT cells [2] (first value of 'respectively' (0.1 μM indirubin derivative; mixture with 1 μg/mL extract)) was 50%. In addition, the “recovery of cell migration rate (%) as compared to the control group” value with HaCaT cells [2] (second value of 'respectively' (1 μM indirubin derivative; mixture with 1 μg/mL extract)) came to 114%. Further, the “acute wound healing as compared to the control group or the positive control group” value with mouse acute wound [3] is “healed quickly”. In the assay on diabetic wound, the “angiogenesis around the wound site” value is listed as “increased angiogenesis”, the “healing of the wound site” value is reported as “healing of the wound site was promoted similarly to the normal control group” and the “re-epithelialization (H&E)” value is “re-epithelialization occurred quickly”. Moreover, in the assay with diabetic wound (vs normal, negative and positive control group (VPA)), the “collagen synthesis (Van Gieson's stain, Masson's trichrome)” value is “increased collagen synthesis”. In addition, the “quantity of collagen (Masson's trichrome, Picrosirius red, van Gieson's stain)” value in the assay on mouse acute wound [4] (C3H mouse acute wound tissue, vs control group, Comparative Example 1, positive control group) was “remarkably increases the quantity of collagen”. For the same compound, in the assay with mouse acute wound [4] (setting [6]), the “re-epithelialization of acute wound” value is listed as “re-epithelialized comparably to or faster than the positive control group EGF” and the “scar-reducing effect, repair of the epidermal layer of skin” value is reported as “very effective in reducing scarring”. Moreover, in the assay with mouse acute wound [4] (C3H mouse, 1.5×1.5 cm^2 wound, 20 μL once daily for 12 days, EGF 100 μM), the “wound repair effect as compared to the positive control group EGF” value is listed as 2-6 times.
Regarding `COC(=O)c1ccc(O)c(OC)c1` [Example 5, Methyl vanillate, reference compound], in the assay with HaCaT cells [5], the “cell motility compared with the control group” value is “no difference in cell motility”. Besides, in the assay on mouse acute wound [3], the “acute wound healing as compared to the control group or the positive control group” value is given as “healed quickly”.
As for `COc1ccc([C@@H]2CC(=O)c3c(O)cc(O[C@@H]4O[C@H](CO[C@@H]5O[C@@H](C)[C@H](O)[C@@H](O)[C@H]5O)[C@@H](O)[C@H](O)[C@H]4O)cc3O2)cc1O` [Example 6, Hesperidin], the “cell motility compared with the control group” value with HaCaT cells [5] is “no difference in cell motility”.
For `CCCC(CCC)C(=O)O` [VPA, valproic acid, reference compound], in the assay with diabetic wound, the “healing of the wound site” value is listed as “wound healing was delayed similarly to the negative control group” and the “re-epithelialization (H&E)” value is on record as “re-epithelialization did not occur even after 14 days”.
